Key:
[1] = target: T1, U46619 stimulated platelet aggregation (Homo sapiens, UniProt P21731); test: test (b): blood platelet aggregation test, TXA2 antagonism against U46619; assay type: cell-based; settings: human platelet-rich plasma; agonist U46619; read-out: pA2, test (b) (converted)
T1 construct: aggregating human, citrated, platelet-rich plasma; endogenous in cells; host or cells: human platelets in citrated platelet-rich plasma
T1 sequence (P21731 1-343): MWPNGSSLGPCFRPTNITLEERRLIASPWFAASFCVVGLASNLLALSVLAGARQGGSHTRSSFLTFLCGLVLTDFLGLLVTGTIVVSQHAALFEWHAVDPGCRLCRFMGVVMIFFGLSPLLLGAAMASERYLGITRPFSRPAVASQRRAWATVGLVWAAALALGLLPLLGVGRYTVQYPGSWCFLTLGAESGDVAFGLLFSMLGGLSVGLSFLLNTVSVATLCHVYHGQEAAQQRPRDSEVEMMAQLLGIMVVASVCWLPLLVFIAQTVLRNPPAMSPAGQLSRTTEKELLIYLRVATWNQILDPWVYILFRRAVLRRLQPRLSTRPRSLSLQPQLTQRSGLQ
Description: (b) a blood platelet aggregation test based on that described by Born (Nature, 1962, 194, 927-929) and involving:
(i) aggregating human, citrated, platelet-rich plasma by addition of the TXA2 mimetic agent U46619 so that a dose-response curve is generated;
(ii) generating a dose-response curve for U46619 stimulated platelet aggregation in the presence of increasing amounts of test compound (generally in the range 10^-5 M to 10^-10 M); and
(iii) calculating a pA2 value indicating potency of TXA2 antagonism for the test compound, averaged over several concentrations, from the calculated 50% response value for U46619 aggregation in the presence and absence of test compound; or […]

TXA2 synthase = target: T2, TXA2 synthase (Homo sapiens, UniProt P24557); test: test (e): TXA2 synthase inhibition in human platelet microsomal preparation; assay type: biochemical; settings: [1-^14 C]arachidonic acid
T2 construct: using a human platelet microsomal TXA2 synthase preparation; from tissue; host or cells: human platelet microsomes
T2 sequence (P24557 1-533): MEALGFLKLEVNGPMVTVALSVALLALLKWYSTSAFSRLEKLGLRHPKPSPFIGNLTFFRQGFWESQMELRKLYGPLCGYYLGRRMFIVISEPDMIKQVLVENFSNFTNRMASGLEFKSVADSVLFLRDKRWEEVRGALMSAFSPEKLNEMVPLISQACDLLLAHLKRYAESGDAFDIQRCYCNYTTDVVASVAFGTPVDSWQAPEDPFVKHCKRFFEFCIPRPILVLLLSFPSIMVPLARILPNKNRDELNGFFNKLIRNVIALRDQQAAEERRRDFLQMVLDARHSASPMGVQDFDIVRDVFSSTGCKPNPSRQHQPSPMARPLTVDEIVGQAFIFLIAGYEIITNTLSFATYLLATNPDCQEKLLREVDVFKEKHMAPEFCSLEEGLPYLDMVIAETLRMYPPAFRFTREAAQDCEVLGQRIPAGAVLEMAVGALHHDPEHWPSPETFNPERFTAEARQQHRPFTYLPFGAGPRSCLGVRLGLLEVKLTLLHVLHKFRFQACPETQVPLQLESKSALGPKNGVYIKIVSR

prostacyclin synthase = target: T3, prostacyclin synthase (Homo sapiens, UniProt Q16647); test: test (g): prostacyclin synthase inhibition in cultured human endothelial cells (6-oxoPGF1a radioimmunoassay); assay type: cell-based
T3 construct: obtaining cultured human endothelial cells from unbilical vein; endogenous in cells; host or cells: cultured human umbilical vein endothelial cells
T3 sequence (Q16647 1-500): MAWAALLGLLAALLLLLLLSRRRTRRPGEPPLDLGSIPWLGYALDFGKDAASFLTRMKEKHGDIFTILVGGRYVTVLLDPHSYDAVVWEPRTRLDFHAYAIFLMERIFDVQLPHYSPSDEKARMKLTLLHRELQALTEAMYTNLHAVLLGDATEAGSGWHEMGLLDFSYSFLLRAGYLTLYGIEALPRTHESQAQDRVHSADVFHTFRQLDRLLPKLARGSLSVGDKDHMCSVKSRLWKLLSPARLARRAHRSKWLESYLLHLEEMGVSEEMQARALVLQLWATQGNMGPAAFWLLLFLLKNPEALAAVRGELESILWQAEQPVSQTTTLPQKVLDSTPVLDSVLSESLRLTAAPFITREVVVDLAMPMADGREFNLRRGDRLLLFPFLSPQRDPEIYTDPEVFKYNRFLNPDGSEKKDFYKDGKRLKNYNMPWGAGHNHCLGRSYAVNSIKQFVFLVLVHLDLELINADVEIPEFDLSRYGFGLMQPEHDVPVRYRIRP
Method: The growth medium is aspirated from the wells and the endothelial cell monolayers are washed twice with alquots of medium (1 ml, Earls 199 medium) containing vehicle or compound. The monolayers are first incubated with medium containing vehicle or compound for 30 minutes at 37° C. Arachidonic acid (10 micro M) is added to the medium and the monolayers are incubated for a further 2 hours with a fresh aliquot of medium. The incubation is terminated by aspiration of the medium into indomethacin (1 micro M). The sample is stored at -20° C. and radioimmunoassay for the stable metabolite 6-oxoPGF1a is performed. By comparison of the amount of 6-oxoPGF1a present in a sample incubated in the presence of compound to one incubated in the absence of compound, the prostacyclin synthase inhibitory properties of the compound may be assessed.

Kb [1]: 7.76 nM
IC50 (TXA2 synthase): 16 nM
IC50 (prostacyclin synthase; human endothelial cells from umbilical vein, unit inferred): 211000 nM
SMILES: Cc1ccc(OC(C)(C)[C@H]2OC[C@@H](C/C=C\CCC(=O)O)[C@@H](c3cncs3)O2)c([N+](=O)[O-])c1 [Example 2]
prostacyclin inhibitory properties, test (g) (prostacyclin synthase; IC50 greater than 100 micro M deemed no significant inhibition): no significant prostacyclin inhibitory properties

Reference: patent US5219874A, “Heterocyclic acids” (Imperial Chemical Industries PLC, priority 1991, dated 1993)
